Assay [1] can be described thus: HEK293 cell cytotoxicity, dose response, cytotoxicity control, cherry-picks, set 5 (AID 1053117). It counts as functional, cell-based.
Assay [2] can be described thus: HepG2 cell cytotoxicity, dose response, cytotoxicity control, cherry-picks, set 5 (AID 1053118). The assay is classed as functional, cell-based.
Assay [3] can be described thus: A549 cell cytotoxicity, dose response, cytotoxicity control, cherry-picks, 26 µM top dose (AID 1053119). It counts as functional, cell-based.
Assay [4] in a line: HEK293T cytotoxicity, dose response, cytotoxicity control for miR-122 modulator project, cell-based, activator set, cherry-pick (AID 720690).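 Note: HEK293T human cells scored for general mammalian cytotoxicity.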 The assay is classed as functional.
A short description of a further assay: cells. Particulars: A549.
The subject of another assay is A549. In words: A549 cell toxicity, dose response, cytotoxicity control, plate reader, cherry-pick samples (AID 687028). The assay is classed as functional, cell-based. Particulars: Homo sapiens.
The test system of a further assay is Vero. In words: Vero cell toxicity, dose response, cytotoxicity control, plate reader, cherry-pick samples (AID 687020). Particulars: Chlorocebus sabaeus. It counts as functional, cell-based.
Assay [5] in a line: HEK293 Cytotoxicity Assay Measured in Cell-Based System Using Plate Reader - 7071-01_Inhibitor_Dose_CherryPick_Activity_Set2. It counts as functional.
Another assay concerns Cryptococcus neoformans. In words: PubChem AID 686997. It counts as functional, organism-based.
Assay [6] concerns HEK293. As to the kind of experiment: HEK293T cell cytotoxicity, dose response, cytotoxicity control, ATP luminescence, cherry-pick samples (AID 687005).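 Note: cells exposed to compound for 48 hours.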 The assay is classed as functional, cell-based. Conditions: Homo sapiens.
A further assay has as its system HeLa. In words: HeLa cell cytotoxicity, dose response, cytotoxicity control, ATP luminescence, cherry-pick samples (AID 687004). It counts as functional, cell-based. Particulars: Homo sapiens.
Assay [7] has as its target Endoplasmic reticulum aminopeptidase 1 (Homo sapiens, UniProt Q9NZ08). In words: ERAP1 aminopeptidase inhibitors, dose response, biochemical, cherry-pick, set 2, plate reader (AID 743314).
In the next assay the target is T1, CAAX prenyl protease 2 (Saccharomyces cerevisiae S288c, UniProt Q03530).
T1 sequence (Q03530 whole entry): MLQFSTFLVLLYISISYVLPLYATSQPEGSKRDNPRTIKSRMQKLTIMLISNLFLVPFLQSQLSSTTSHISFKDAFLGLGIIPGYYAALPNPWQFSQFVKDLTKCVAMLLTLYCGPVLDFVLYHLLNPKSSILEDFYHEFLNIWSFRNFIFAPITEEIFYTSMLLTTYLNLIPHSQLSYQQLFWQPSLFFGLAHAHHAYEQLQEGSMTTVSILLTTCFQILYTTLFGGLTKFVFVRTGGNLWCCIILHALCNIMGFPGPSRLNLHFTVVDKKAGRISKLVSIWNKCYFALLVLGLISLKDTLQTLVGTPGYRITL
It counts as biochemical.

Assay [8] concerns HEK293. As to the kind of experiment: cells. It counts as functional, cell-based. Particulars: Homo sapiens.
Assay [9] deals with HEK293. As to the kind of experiment: NOD2 signaling inhibitors in MDP-stimulated cells, cell-based, uHTS, luminescence (AID 2001). The assay is classed as functional. Conditions: Homo sapiens.
Assay [10] concerns HEK293. As to the kind of experiment: cells. It counts as functional, cell-based. Particulars: Homo sapiens. The source holds these as a separate data set.
Assay [11] addresses Nucleotide-binding oligomerization domain-containing protein 2 (Homo sapiens, UniProt Q9HC29). In words: NOD2 signaling inhibitors, cell-based, luminescence, uHTS, HEK293 (AID 1566). The assay is classed as functional.
In assay [12] the test system is HEK293. As to the kind of experiment: NOD1 signaling inhibitors, primary screen, cell-based, luminescence, uHTS (AID 1578). The assay is classed as functional. Particulars: Homo sapiens.
For assay [13], the system named is HEK293. In words: cells. Conditions: Homo sapiens. The assay is classed as functional, cell-based. This is another data set of the same source.
The next assay deals with Albumin (Bos taurus, UniProt P02769). As to the kind of experiment: Counterscreen for inhibitors of T-cell receptor (TCR)-CD3 interaction: Fluorescence-based biochemical high throughput dose response assay to identify inhibitors of T-cell receptor (TCR)-CD3 interaction using a TAMRA-labeled BSA probe. The assay is classed as functional. (In general: A counterscreen serves to expose hits that act by an unwanted route or on another target.)
Albumin, sequence (P02769 whole entry): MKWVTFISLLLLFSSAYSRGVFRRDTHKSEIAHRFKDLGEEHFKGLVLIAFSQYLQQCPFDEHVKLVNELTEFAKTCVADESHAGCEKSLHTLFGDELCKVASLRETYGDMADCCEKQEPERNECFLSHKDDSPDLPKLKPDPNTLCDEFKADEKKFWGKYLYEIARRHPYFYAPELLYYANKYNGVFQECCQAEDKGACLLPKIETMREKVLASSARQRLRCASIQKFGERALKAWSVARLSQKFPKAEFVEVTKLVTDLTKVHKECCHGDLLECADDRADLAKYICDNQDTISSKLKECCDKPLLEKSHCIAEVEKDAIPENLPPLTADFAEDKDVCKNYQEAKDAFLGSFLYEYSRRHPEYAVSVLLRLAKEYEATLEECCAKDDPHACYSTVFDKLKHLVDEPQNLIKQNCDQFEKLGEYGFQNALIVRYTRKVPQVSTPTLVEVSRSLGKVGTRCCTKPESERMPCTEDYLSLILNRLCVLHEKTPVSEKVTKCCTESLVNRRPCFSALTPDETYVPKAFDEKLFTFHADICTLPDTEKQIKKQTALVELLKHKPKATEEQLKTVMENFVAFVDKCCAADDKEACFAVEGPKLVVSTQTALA

In assay [14] the target is T2, Polyadenylate-binding protein 1 (Homo sapiens, UniProt P11940). As to the kind of experiment: PABP1 MLLE–PAM2 interaction inhibitors, dose response, miRNA deadenylation inhibitor project, biochemical, fluorescence polarization, Cy5-PAM2 peptide, secondary (AID 602260). The assay is classed as functional. Conditions: read-out: IC50_Mean.
T2 sequence (P11940 whole entry): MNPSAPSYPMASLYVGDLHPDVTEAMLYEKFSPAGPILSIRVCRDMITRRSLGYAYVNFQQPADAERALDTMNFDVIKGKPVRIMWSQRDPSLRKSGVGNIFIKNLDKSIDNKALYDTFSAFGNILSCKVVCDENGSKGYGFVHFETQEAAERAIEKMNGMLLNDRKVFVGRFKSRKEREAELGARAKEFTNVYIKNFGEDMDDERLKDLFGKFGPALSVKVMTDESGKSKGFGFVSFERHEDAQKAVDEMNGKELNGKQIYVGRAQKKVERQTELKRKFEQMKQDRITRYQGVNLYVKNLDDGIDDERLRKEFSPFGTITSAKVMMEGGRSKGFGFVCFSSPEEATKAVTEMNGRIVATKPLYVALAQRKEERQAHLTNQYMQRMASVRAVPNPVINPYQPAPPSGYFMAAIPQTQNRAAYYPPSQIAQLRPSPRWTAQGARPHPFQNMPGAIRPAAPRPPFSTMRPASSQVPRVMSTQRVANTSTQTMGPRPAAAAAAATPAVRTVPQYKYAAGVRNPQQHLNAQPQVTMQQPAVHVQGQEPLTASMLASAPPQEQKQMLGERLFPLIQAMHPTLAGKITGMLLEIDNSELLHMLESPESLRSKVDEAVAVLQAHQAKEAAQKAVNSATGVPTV
A further assay has as its target T3, Protein skinhead-1 (Caenorhabditis elegans, UniProt P34707).
T3 sequence (P34707 whole entry): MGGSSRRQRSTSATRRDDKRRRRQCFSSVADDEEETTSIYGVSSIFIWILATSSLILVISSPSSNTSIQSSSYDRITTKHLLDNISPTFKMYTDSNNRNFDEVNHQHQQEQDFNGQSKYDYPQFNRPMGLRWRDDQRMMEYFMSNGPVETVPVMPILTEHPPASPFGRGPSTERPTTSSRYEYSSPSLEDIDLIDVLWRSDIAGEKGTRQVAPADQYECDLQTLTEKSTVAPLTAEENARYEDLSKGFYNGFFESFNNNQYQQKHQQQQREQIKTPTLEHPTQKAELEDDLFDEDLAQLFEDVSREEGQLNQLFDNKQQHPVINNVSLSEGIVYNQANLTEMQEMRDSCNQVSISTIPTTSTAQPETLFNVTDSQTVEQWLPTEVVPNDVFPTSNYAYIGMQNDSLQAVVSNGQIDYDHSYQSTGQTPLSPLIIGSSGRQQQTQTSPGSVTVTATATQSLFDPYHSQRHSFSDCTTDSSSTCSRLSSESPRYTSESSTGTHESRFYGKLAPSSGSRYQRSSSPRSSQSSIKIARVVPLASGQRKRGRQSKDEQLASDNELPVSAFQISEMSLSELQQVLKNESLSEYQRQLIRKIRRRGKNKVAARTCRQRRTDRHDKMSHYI
The assay is classed as functional.

In assay [15] the target is T2, Polyadenylate-binding protein 1. In words: PABP1 MLLE–PAM2 binding inhibitor potency, dose response, biochemical, fluorescence polarization, FITC-PAM2 peptide (AID 602259). It counts as functional. Particulars: read-out: IC50_Mean.
In assay [16] the target is Botulinum neurotoxin type F (Clostridium botulinum, UniProt P30996). As to the kind of experiment: High-throughput multiplex microsphere dose response for inhibitors of toxin protease, specifically Botulinum neurotoxin light chain F protease, compounds from Cherry Pick 02. Conditions: read-out: EC50_MICROM. It counts as functional.
Botulinum neurotoxin type F, sequence (P30996 1-436 limits assumed): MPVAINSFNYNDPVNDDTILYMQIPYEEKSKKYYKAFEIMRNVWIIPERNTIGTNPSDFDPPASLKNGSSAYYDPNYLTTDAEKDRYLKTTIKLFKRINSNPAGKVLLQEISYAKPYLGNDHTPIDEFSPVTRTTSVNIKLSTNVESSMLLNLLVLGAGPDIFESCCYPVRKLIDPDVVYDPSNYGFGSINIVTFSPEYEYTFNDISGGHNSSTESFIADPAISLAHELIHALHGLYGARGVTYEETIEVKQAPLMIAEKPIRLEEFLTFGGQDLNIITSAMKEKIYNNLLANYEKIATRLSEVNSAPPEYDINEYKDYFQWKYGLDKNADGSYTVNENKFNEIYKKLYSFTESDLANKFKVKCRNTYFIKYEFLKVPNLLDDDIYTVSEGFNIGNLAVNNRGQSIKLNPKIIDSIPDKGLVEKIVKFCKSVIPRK

Structures are written as SMILES. Calls of active or inactive are those of the source.

Eight molecules from ChEMBL document CHEMBL1201862, “PubChem BioAssay data set” (2004) can be followed below.

A word on the AC50: it is the concentration at which the activity in the assay is half-maximal.

Nucleotide-binding oligomerization domain-containing protein 2, sequence (Q9HC29 whole entry, the tested form may be a part): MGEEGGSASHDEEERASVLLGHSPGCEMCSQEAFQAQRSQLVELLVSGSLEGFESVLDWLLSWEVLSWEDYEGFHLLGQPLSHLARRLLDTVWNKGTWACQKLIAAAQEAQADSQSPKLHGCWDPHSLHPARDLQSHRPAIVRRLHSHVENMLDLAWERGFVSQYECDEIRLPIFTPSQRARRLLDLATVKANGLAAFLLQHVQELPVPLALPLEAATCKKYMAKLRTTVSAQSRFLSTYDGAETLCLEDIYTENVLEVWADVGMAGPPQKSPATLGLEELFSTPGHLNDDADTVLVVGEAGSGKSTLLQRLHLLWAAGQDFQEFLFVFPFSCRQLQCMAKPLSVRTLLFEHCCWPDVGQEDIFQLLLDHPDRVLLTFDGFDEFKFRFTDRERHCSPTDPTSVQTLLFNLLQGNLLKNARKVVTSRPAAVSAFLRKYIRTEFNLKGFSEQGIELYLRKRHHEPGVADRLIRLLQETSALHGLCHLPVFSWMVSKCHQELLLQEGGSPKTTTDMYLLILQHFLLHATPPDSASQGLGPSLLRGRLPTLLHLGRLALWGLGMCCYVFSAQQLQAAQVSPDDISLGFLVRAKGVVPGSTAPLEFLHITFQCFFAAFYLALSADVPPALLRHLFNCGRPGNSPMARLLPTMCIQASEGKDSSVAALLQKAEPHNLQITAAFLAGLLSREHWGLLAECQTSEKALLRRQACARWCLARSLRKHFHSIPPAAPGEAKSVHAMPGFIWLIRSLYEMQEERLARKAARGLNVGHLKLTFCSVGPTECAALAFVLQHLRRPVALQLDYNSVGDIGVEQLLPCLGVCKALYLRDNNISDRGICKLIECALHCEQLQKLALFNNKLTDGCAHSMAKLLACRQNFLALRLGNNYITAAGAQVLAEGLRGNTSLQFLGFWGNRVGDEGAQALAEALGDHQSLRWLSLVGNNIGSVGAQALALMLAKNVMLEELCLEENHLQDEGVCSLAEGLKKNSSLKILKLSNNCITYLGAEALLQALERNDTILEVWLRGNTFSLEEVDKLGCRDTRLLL
Endoplasmic reticulum aminopeptidase 1, sequence (Q9NZ08 whole entry): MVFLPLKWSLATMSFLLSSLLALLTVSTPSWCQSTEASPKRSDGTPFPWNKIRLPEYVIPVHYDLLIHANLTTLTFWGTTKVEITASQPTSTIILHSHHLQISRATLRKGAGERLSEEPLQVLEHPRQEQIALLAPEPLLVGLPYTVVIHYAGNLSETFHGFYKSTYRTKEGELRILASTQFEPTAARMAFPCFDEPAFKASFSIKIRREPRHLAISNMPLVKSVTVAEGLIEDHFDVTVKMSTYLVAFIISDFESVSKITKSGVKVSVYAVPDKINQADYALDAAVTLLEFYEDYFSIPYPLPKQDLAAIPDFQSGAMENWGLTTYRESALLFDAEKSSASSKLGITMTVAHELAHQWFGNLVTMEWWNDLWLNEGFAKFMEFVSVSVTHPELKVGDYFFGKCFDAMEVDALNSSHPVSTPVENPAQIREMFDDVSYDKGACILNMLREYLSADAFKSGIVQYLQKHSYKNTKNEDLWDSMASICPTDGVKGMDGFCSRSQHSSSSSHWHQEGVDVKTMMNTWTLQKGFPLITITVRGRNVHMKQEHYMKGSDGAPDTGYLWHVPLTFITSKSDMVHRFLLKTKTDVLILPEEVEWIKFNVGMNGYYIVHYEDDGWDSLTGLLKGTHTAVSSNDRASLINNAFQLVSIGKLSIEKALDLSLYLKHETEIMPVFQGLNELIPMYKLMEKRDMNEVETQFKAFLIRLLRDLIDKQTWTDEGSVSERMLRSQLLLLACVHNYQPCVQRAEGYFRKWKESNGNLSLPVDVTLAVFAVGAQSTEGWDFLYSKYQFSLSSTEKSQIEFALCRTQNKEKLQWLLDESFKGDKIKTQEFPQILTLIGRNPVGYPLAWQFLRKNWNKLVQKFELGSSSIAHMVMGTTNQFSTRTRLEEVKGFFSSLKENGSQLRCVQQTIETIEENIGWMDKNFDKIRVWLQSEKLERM

For the molecule `CO[C@H]1CN(C)C(=O)c2ccc(NC(=O)c3ccc(-c4ccccc4)cc3)cc2OC[C@H](C)NC[C@H]1C`, the AC50 is > 52 µM (inactive) in assay [1], 32.2 µM (active) in assay [2] and 33.9 µM (active) in assay [3].

As for `COc1cccc(S(=O)(=O)N(C)C[C@@H]2Oc3cc(C4=CCCCC4)ccc3S(=O)(=O)N([C@H](C)CO)C[C@@H]2C)c1`, the concentration at half-maximal activity (AC50) in [4] is 25.1 µM (active).

With `Cc1ccc2c(c1)N(C(=O)CCC(=O)NCCCN1CCOCC1)CC(C)O2` (centres undefined), the AC50 in “cells” was > 52 µM (inactive).

For `Cc1ccc(C(C)C)c(OCCNC(=O)c2ccccc2O)c1`, the values for the AC50 in the assay with A549 and in the assay with Vero were 2.13 µM (active) and 1.45 µM (active), respectively.

Regarding `COC(=O)C1=C(C)N(Cc2ccc(Cl)cc2)C(=S)NC1c1cccc(Cl)c1` (centres undefined), the concentration at half-maximal activity (AC50) in [5] is 23.4 µM (active); in the assay on Cryptococcus neoformans, > 70 µM (inactive); with HEK293 [6] it was 23.4 µM (active); in the assay on HeLa it was > 47 µM (inactive).

Regarding `CCOC(=O)C[n+]1ccc2c([nH]c3ccccc32)c1C`, the concentration at half-maximal activity (AC50) in assay [7] was 11.4 µM (active); at CAAX prenyl protease 2, > 100 µM (inactive).

On to `O=C(CNC(=O)c1cccc(Br)c1)N/N=C/c1cc(Br)cc(Br)c1O`, for which the IC50 is > 20 µM (inactive) in the assay on HEK293 [8]; > 20 µM (inactive) in the assay on HEK293 [9]; > 20 µM (inactive) in the assay with HEK293 [10]; 19.4 µM (active) in the assay with HEK293 [13]; > 94.1 µM (inactive) at Albumin. The EC50 (in [11]; in the assay on HEK293 [12]) was > 20 µM (inactive) in each case.

Regarding `Cc1cc2cc(CNC(=O)c3ccc(S(=O)(=O)N(C)C)cc3)ccc2n1C`, the IC50 in assay [14] is > 66 µM (inactive); at Protein skinhead-1 it was > 100 µM (inactive); in assay [15] it was > 66 µM (inactive). The EC50 in assay [16] is > 20 µM (inactive).
